Measurements taken from publication PMC5218480 (PLoS ONE, 2017).

System: MV-4-11 cells
Assay: Gene expression microarray analysis (Affymetrix PrimeView) and GSEA
Assay type: cell-based, human
Parameters: RFU PODN (11730768_x_at) / Fold change /veh PODN (11730768_x_at) / RFU LINC00158 (11744669_a_at) / Fold change /veh LINC00158 (11744669_a_at) / RFU DUSP10 (11751237_a_at) / Fold change /veh DUSP10 (11751237_a_at) / RFU ID3 (11757404_x_at) / Fold change /veh ID3 (11757404_x_at) / RFU PLEKHG5 (11737974_s_at) / Fold change /veh PLEKHG5 (11737974_s_at) / RFU LRRC4B (11730491_at) / Fold change /veh LRRC4B (11730491_at) / RFU GIMAP4 (11747438_a_at) / Fold change /veh GIMAP4 (11747438_a_at) / RFU KRT8 (11758183_x_at) / Fold change /veh KRT8 (11758183_x_at) / RFU CNN1 (11734310_a_at) / Fold change /veh CNN1 (11734310_a_at) / RFU VPS37D (11726825_at) / Fold change /veh VPS37D (11726825_at) / RFU C10orf10 (11716522_x_at) / Fold change /veh C10orf10 (11716522_x_at) / RFU KIR2DL2 /// KIR2DL4 /// KIR2DL5A /// KIR2DL5B /// KIR2DS1 /// KIR2DS2 /// KIR2DS3 /// KIR2DS4 /// KIR3DL3 /// KIR3DL3 /// KIR3DS1 (11738374_at) / Fold change /veh KIR2DL2 /// KIR2DL4 /// KIR2DL5A /// KIR2DL5B /// KIR2DS1 /// KIR2DS2 /// KIR2DS3 /// KIR2DS4 /// KIR3DL3 /// KIR3DL3 /// KIR3DS1 (11738374_at) / RFU C1QL1 (11718748_at) / Fold change /veh C1QL1 (11718748_at) / RFU TMPRSS4 (11747572_a_at) / Fold change /veh TMPRSS4 (11747572_a_at) / RFU HAMP (11756126_x_at) / Fold change /veh HAMP (11756126_x_at) / RFU RNFT2 (11725882_a_at) / Fold change /veh RNFT2 (11725882_a_at) / RFU NR4A2 (11747474_a_at) / Fold change /veh NR4A2 (11747474_a_at) / RFU ABCC12 (11746883_a_at) / Fold change /veh ABCC12 (11746883_a_at) / RFU TMEM136 (11760407_x_at) / Fold change /veh TMEM136 (11760407_x_at) / RFU CLDN22 /// WWC2 (11732394_at) / Fold change /veh CLDN22 /// WWC2 (11732394_at) / RFU HLA-DPB1 (11760878_x_at) / Fold change /veh HLA-DPB1 (11760878_x_at) / RFU SPINT1 (11716480_a_at) / Fold change /veh SPINT1 (11716480_a_at) / RFU GAP43 (11754022_s_at) / Fold change /veh GAP43 (11754022_s_at) / RFU A4GNT (11735810_at) / Fold change /veh A4GNT (11735810_at) / RFU PRB3 (11715151_x_at) / Fold change /veh PRB3 (11715151_x_at) / RFU TUBB4B (11761932_at) / Fold change /veh TUBB4B (11761932_at) / RFU CAPN14 (11732068_a_at) / Fold change /veh CAPN14 (11732068_a_at) / RFU TMCC2 (11721928_a_at) / Fold change /veh TMCC2 (11721928_a_at) / RFU IRGQ (11745062_a_at) / Fold change /veh IRGQ (11745062_a_at) / RFU FAM174B (11720279_a_at) / Fold change /veh FAM174B (11720279_a_at) / RFU TMPRSS4 (11748680_a_at) / Fold change /veh TMPRSS4 (11748680_a_at) / RFU FAM212B (11763350_a_at) / Fold change /veh FAM212B (11763350_a_at) / RFU PLEKHG5 (11743358_a_at) / Fold change /veh PLEKHG5 (11743358_a_at) / RFU ZSCAN30 (11745921_a_at) / Fold change /veh ZSCAN30 (11745921_a_at) / RFU CMKLR1 (11741424_a_at) / Fold change /veh CMKLR1 (11741424_a_at) / RFU LOC101060620 /// MAPK8IP1 (11723275_at) / Fold change /veh LOC101060620 /// MAPK8IP1 (11723275_at) / RFU SPTSSB (11747773_x_at) / Fold change /veh SPTSSB (11747773_x_at) / RFU PRSS12 (11739890_at) / Fold change /veh PRSS12 (11739890_at) / RFU BIN1 (11741810_x_at) / Fold change /veh BIN1 (11741810_x_at) / RFU WNT11 (11732464_a_at) / Fold change /veh WNT11 (11732464_a_at) / RFU C10orf10 (11716521_a_at) / Fold change /veh C10orf10 (11716521_a_at) / RFU C5orf56 (11738089_at) / Fold change /veh C5orf56 (11738089_at) / RFU CYB561 (11721691_x_at) / Fold change /veh CYB561 (11721691_x_at) / RFU ANKRD19P (11752326_a_at) / Fold change /veh ANKRD19P (11752326_a_at) / RFU OR2T12 /// OR2T33 /// OR2T8 (11738714_s_at) / Fold change /veh OR2T12 /// OR2T33 /// OR2T8 (11738714_s_at) / RFU VCAN (11748164_a_at) / Fold change /veh VCAN (11748164_a_at) / RFU JSRP1 (11732532_at) / Fold change /veh JSRP1 (11732532_at) / RFU KRTAP10-11 (11738290_x_at) / Fold change /veh KRTAP10-11 (11738290_x_at) / RFU MYO3A (11730013_a_at) / Fold change /veh MYO3A (11730013_a_at) / RFU EBF3 (11725865_a_at) / Fold change /veh EBF3 (11725865_a_at) / RFU CAMK2N1 (11719241_x_at) / Fold change /veh CAMK2N1 (11719241_x_at) / RFU C5orf56 (11738088_a_at) / Fold change /veh C5orf56 (11738088_a_at) / RFU OLFML3 (11715873_a_at) / Fold change /veh OLFML3 (11715873_a_at) / RFU LOC100653217 /// NTM (11731650_a_at) / Fold change /veh LOC100653217 /// NTM (11731650_a_at) / RFU MAPK11 (11762145_a_at) / Fold change /veh MAPK11 (11762145_a_at) / RFU FIZ1 (11724087_x_at) / Fold change /veh FIZ1 (11724087_x_at) / RFU OASL (11726364_x_at) / Fold change /veh OASL (11726364_x_at) / RFU SOX15 (11748057_x_at) / Fold change /veh SOX15 (11748057_x_at) / RFU CD79A (11719716_a_at) / Fold change /veh CD79A (11719716_a_at) / RFU HIST1H1D (11736915_at) / Fold change /veh HIST1H1D (11736915_at) / RFU CASKIN2 (11723855_a_at) / Fold change /veh CASKIN2 (11723855_a_at) / RFU LOC730098 (11760151_x_at) / Fold change /veh LOC730098 (11760151_x_at) / RFU OR4N2 (11742367_at) / Fold change /veh OR4N2 (11742367_at) / RFU PRRT2 (11749266_a_at) / Fold change /veh PRRT2 (11749266_a_at) / RFU SNX32 (11753110_a_at) / Fold change /veh SNX32 (11753110_a_at) / RFU CDHR5 (11726645_a_at) / Fold change /veh CDHR5 (11726645_a_at) / RFU RCAN1 (11760418_a_at) / Fold change /veh RCAN1 (11760418_a_at) / RFU FAM167A (11723789_a_at) / Fold change /veh FAM167A (11723789_a_at) / RFU FAM26E (11764081_at) / Fold change /veh FAM26E (11764081_at) / RFU ISYNA1 (11749810_s_at) / Fold change /veh ISYNA1 (11749810_s_at) / RFU ACY1 (11761880_at) / Fold change /veh ACY1 (11761880_at) / RFU 11764098_at / Fold change /veh 11764098_at / RFU SAMD14 (11745864_x_at) / Fold change /veh SAMD14 (11745864_x_at) / RFU NPB (11741838_a_at) / Fold change /veh NPB (11741838_a_at) / RFU TMPRSS6 (11731388_a_at) / Fold change /veh TMPRSS6 (11731388_a_at) / RFU KRTAP10-2 (11738614_at) / Fold change /veh KRTAP10-2 (11738614_at) / RFU ARHGAP8 /// PRR5-ARHGAP8 (11727945_x_at) / Fold change /veh ARHGAP8 /// PRR5-ARHGAP8 (11727945_x_at) / RFU KRTAP5-7 /// NADSYN1 (11734609_at) / Fold change /veh KRTAP5-7 /// NADSYN1 (11734609_at) / RFU RASL12 (11751679_a_at) / Fold change /veh RASL12 (11751679_a_at) / RFU CDKN2B (11736163_a_at) / Fold change /veh CDKN2B (11736163_a_at) / RFU PRF1 (11729649_at) / Fold change /veh PRF1 (11729649_at) / RFU, ZNF638 /// ZNF638-IT1 / Fold change vs veh, ZNF638 /// ZNF638-IT1 / RFU, PANK3 / Fold change vs veh, PANK3 / RFU, SH3YL1 / Fold change vs veh, SH3YL1 / RFU, ZEB2 / Fold change vs veh, ZEB2 / RFU, NRIP1 / Fold change vs veh, NRIP1 / RFU, PTTG1IP / Fold change vs veh, PTTG1IP / RFU, CAPN2 / Fold change vs veh, CAPN2 / RFU, MED14 / Fold change vs veh, MED14 / RFU, SNORA58 / Fold change vs veh, SNORA58 / RFU, C1orf63 / Fold change vs veh, C1orf63 / RFU, LRRFIP1 / Fold change vs veh, LRRFIP1 / RFU, NDUFAF7 / Fold change vs veh, NDUFAF7 / RFU, SLC12A2 / Fold change vs veh, SLC12A2 / RFU, IBTK / Fold change vs veh, IBTK / RFU, ESF1 / Fold change vs veh, ESF1 / Fold change vs veh, TMEM50B / RFU, TAOK1 / Fold change vs veh, TAOK1 / RFU, ACBD3 / Fold change vs veh, ACBD3 / RFU, TMA16 / Fold change vs veh, TMA16 / RFU, RWDD3 / Fold change vs veh, RWDD3 / RFU, BCAT1 / Fold change vs veh, BCAT1 / RFU, EDEM3 / Fold change vs veh, EDEM3 / RFU, TMEM33 / Fold change vs veh, TMEM33 / RFU, WDR75 / Fold change vs veh, WDR75 / RFU, AHCTF1 / Fold change vs veh, AHCTF1 / RFU, TFRC / Fold change vs veh, TFRC / RFU, ZDHHC17 / Fold change vs veh, ZDHHC17 / RFU, NOM1 / Fold change vs veh, NOM1 / RFU, ARL8B / Fold change vs veh, ARL8B / RFU, ZBTB11 / Fold change vs veh, ZBTB11 / RFU, TAMM41 / Fold change vs veh, TAMM41 / RFU, KIAA1704 /// LOC100996395 / Fold change vs veh, KIAA1704 /// LOC100996395 / RFU, ING1 / Fold change vs veh, ING1 / RFU, TRMT61B / Fold change vs veh, TRMT61B / RFU, FUBP3 / Fold change vs veh, FUBP3 / RFU, TP53 / Fold change vs veh, TP53 / RFU, TNKS2 / Fold change vs veh, TNKS2 / RFU, ZFP14 / Fold change vs veh, ZFP14 / RFU, ACTR2 / Fold change vs veh, ACTR2 / RFU, PPP3R1 / Fold change vs veh, PPP3R1 / RFU, PIK3R1 / Fold change vs veh, PIK3R1 / RFU, HNRNPA1 / Fold change vs veh, HNRNPA1 / RFU, RNF170 / Fold change vs veh, RNF170 / RFU, ZNF28 / Fold change vs veh, ZNF28 / RFU, RNGTT / Fold change vs veh, RNGTT / RFU, OGT / Fold change vs veh, OGT / RFU, BRD1 / Fold change vs veh, BRD1 / RFU, MARS / Fold change vs veh, MARS / RFU, ZNF655 / Fold change vs veh, ZNF655 / RFU, FAHD1 / Fold change vs veh, FAHD1 / RFU, BDP1 / Fold change vs veh, BDP1 / RFU, LRRCC1 / Fold change vs veh, LRRCC1 / RFU, ARID1A / Fold change vs veh, ARID1A / RFU, ZNF146 / Fold change vs veh, ZNF146 / RFU, ZNF330 / Fold change vs veh, ZNF330 / RFU, GPN3 / Fold change vs veh, GPN3 / RFU, C9orf123 / Fold change vs veh, C9orf123 / RFU, N4BP2L2 / Fold change vs veh, N4BP2L2 / RFU, ARFIP1 / Fold change vs veh, ARFIP1 / RFU, FAM179B / Fold change vs veh, FAM179B / RFU, BCL10 / Fold change vs veh, BCL10 / RFU, UHRF1BP1L / Fold change vs veh, UHRF1BP1L / RFU, BET1 / Fold change vs veh, BET1 / RFU, CNOT2 / Fold change vs veh, CNOT2 / RFU, ZNF268 / Fold change vs veh, ZNF268 / Fold change vs veh, ZNF507 / RFU, DGCR2 / Fold change vs veh, DGCR2 / RFU, WDSUB1 / Fold change vs veh, WDSUB1 / Fold change vs veh, HSP90B1 /// MIR3652 / RFU, ADSS / Fold change vs veh, ADSS / RFU, GK / Fold change vs veh, GK / RFU, ZNF148 / Fold change vs veh, ZNF148 / RFU, TAF9 / Fold change vs veh, TAF9 / RFU, SLC1A5 / Fold change vs veh, SLC1A5 / RFU, SLMO2 / Fold change vs veh, SLMO2 / RFU, ABCC4 / Fold change vs veh, ABCC4 / RFU, LOC101060439 /// RAP1B / Fold change vs veh, LOC101060439 /// RAP1B / RFU, RFX7 / Fold change vs veh, RFX7 / RFU, GTPBP10 / Fold change vs veh, GTPBP10 / RFU, CNEP1R1 / Fold change vs veh, CNEP1R1 / RFU, BIVM-ERCC5 /// ERCC5 / Fold change vs veh, BIVM-ERCC5 /// ERCC5 / RFU, ILF3 / Fold change vs veh, ILF3 / RFU 11762660_at / Fold change /veh 11762660_at / RFU VCAN (11757783_s_at) / Fold change /veh VCAN (11757783_s_at) / RFU DDX43 (11728927_at) / Fold change /veh DDX43 (11728927_at) / RFU KRT8 (11758188_x_at) / Fold change /veh KRT8 (11758188_x_at) / RFU NKD1 (11759106_at) / Fold change /veh NKD1 (11759106_at) / RFU SRD5A1 (11742802_a_at) / Fold change /veh SRD5A1 (11742802_a_at) / RFU TPSAB1 /// TPSB2 (11721975_s_at) / Fold change /veh TPSAB1 /// TPSB2 (11721975_s_at) / RFU GSTM3 (11746129_a_at) / Fold change /veh GSTM3 (11746129_a_at) / RFU IL23R (11737362_x_at) / Fold change /veh IL23R (11737362_x_at) / RFU TMEM51 (11727254_a_at) / Fold change /veh TMEM51 (11727254_a_at) / RFU PIWIL2 (11732686_x_at) / Fold change /veh PIWIL2 (11732686_x_at) / RFU ORM1 (11744905_x_at) / Fold change /veh ORM1 (11744905_x_at) / RFU CCDC152 (11743942_at) / Fold change /veh CCDC152 (11743942_at) / RFU ECM1 (11717891_a_at) / Fold change /veh ECM1 (11717891_a_at) / RFU IL23R (11748794_a_at) / Fold change /veh IL23R (11748794_a_at) / RFU TNFAIP8L3 (11732012_x_at) / Fold change /veh TNFAIP8L3 (11732012_x_at) / RFU MBOAT4 (11741988_at) / Fold change /veh MBOAT4 (11741988_at) / RFU 11764193_at / Fold change /veh 11764193_at / RFU TMEM53 (11763286_at) / Fold change /veh TMEM53 (11763286_at) / RFU MAGEB2 (11727129_at) / Fold change /veh MAGEB2 (11727129_at) / RFU TMEM200A (11744735_a_at) / Fold change /veh TMEM200A (11744735_a_at) / RFU CCDC152 (11751479_a_at) / Fold change /veh CCDC152 (11751479_a_at) / RFU FAM211A (11726209_a_at) / Fold change /veh FAM211A (11726209_a_at) / RFU RGS16 (11746705_a_at) / Fold change /veh RGS16 (11746705_a_at) / RFU VCAN (11755009_s_at) / Fold change /veh VCAN (11755009_s_at) / RFU RHOB (11743442_s_at) / Fold change /veh RHOB (11743442_s_at) / RFU RGS16 (11720943_a_at) / Fold change /veh RGS16 (11720943_a_at) / RFU RGS16 (11720944_at) / Fold change /veh RGS16 (11720944_at) / RFU, VPS4B / Fold change vs veh, VPS4B / RFU, CREB1 / Fold change vs veh, CREB1 / RFU, DNAJC13 / Fold change vs veh, DNAJC13 / RFU, GNAQ / Fold change vs veh, GNAQ / RFU, CDK5R1 / Fold change vs veh, CDK5R1 / RFU, ZRANB3 / Fold change vs veh, ZRANB3 / RFU, CUL4A / Fold change vs veh, CUL4A / RFU, CCNY / Fold change vs veh, CCNY / RFU, UFL1 / Fold change vs veh, UFL1 / RFU, COG3 / Fold change vs veh, COG3 / RFU, DIAPH2 / Fold change vs veh, DIAPH2 / RFU, SKA2 / Fold change vs veh, SKA2 / RFU, AFF3 / Fold change vs veh, AFF3 / RFU, LMF1 / Fold change vs veh, LMF1 / RFU, IPO11 / Fold change vs veh, IPO11 / RFU, DFFB / Fold change vs veh, DFFB / RFU, FOXP1 / Fold change vs veh, FOXP1 / RFU, CARD8 / Fold change vs veh, CARD8 / RFU, STRN3 / Fold change vs veh, STRN3 / RFU, ADK / Fold change vs veh, ADK / RFU, RASSF2 / Fold change vs veh, RASSF2 / RFU, WIPF1 / Fold change vs veh, WIPF1 / RFU, LARP1B / Fold change vs veh, LARP1B / RFU, RASA1 / Fold change vs veh, RASA1 / RFU, RB1 / Fold change vs veh, RB1 / RFU, PPFIA1 / Fold change vs veh, PPFIA1 / RFU, MAT2A / Fold change vs veh, MAT2A / RFU, CCT5 / Fold change vs veh, CCT5 / RFU, WDR92 / Fold change vs veh, WDR92 / RFU, CUX1 / Fold change vs veh, CUX1 / RFU, TTC7A / Fold change vs veh, TTC7A / RFU, TMEM135 / Fold change vs veh, TMEM135 / RFU, DEPTOR / Fold change vs veh, DEPTOR / RFU, CPM / Fold change vs veh, CPM / RFU, DNAJB6 / Fold change vs veh, DNAJB6 / RFU, CACNA2D3 / Fold change vs veh, CACNA2D3 / RFU, DTX4 / Fold change vs veh, DTX4 / RFU, TFCP2 / Fold change vs veh, TFCP2 / RFU, GMCL1 /// GMCL1P1 / Fold change vs veh, GMCL1 /// GMCL1P1 / RFU, AEBP2 / Fold change vs veh, AEBP2 / RFU, SNHG1 /// SNORD22 /// SNORD25 /// SNORD26 /// SNORD27 /// SNORD28 /// SNORD29 /// SNORD31 / Fold change vs veh, SNHG1 /// SNORD22 /// SNORD25 /// SNORD26 /// SNORD27 /// SNORD28 /// SNORD29 /// SNORD31 / Fold change (Aza/veh), C12orf56 (ProbeSet 11735607_a_at) / Fold change (ACY-1035/veh), C12orf56 (ProbeSet 11735607_a_at) / Fold change (Aza/veh), FGFR1OP (ProbeSet 11751329_s_at) / Fold change (ACY-1035/veh), FGFR1OP (ProbeSet 11751329_s_at) / Fold change (Aza/veh), VPS36 (ProbeSet 11739960_a_at) / Fold change (ACY-1035/veh), VPS36 (ProbeSet 11739960_a_at) / RFU SYPL1 (11715823_x_at) / Fold change /veh SYPL1 (11715823_x_at) / RFU IGFBP7 (11715501_s_at) / Fold change /veh IGFBP7 (11715501_s_at) / RFU REEP3 (11722064_at) / Fold change /veh REEP3 (11722064_at) / RFU IGLL1 (11728026_x_at) / Fold change /veh IGLL1 (11728026_x_at): dose or concentration left out as unconfirmed
Details: MV-4-11 cells, 48 hours

Nc1ccc(-c2cccs2)cc1NC(=O)c1ccc2c(c1)cc(C1CC1)n2CCN1CCOCC1 [ACY-1035]
Fold change /veh CCDC152 (11743942_at): 1.01
